Measurements: ChEMBL document CHEMBL1201862, “PubChem BioAssay data set” (2004)
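Growth conditions: 96-well plates. Treatment: test compound, 48 hours, 5 concentrations. Analysis: linear interpolation between bracketing concentrations; unreached endpoints set to highest concentration. GI50 = concentration required for 50% inhibition of growth.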 Activity calls are given as the source filed them. Rule as the data show it: active = GI50 up to about 1.1 µM and inactive = higher.

Experiments:
Assay in all cases: NCI anticancer screen, dose series, 48 h
786-0 = system: 786-0
A498 = system: A498
A549 = system: A549
ACHN = system: ACHN
CAKI-1 = system: CAKI-1
COLO 205 = system: COLO 205
DLD-1 = system: DLD-1
DMS-114 = system: DMS-114
DMS-273 = system: DMS-273
EKVX = system: EKVX
HCC 2998 = system: HCC 2998
HCT-116 = system: HCT-116
HCT-15 = system: HCT-15
HL-60 = system: HL-60
HOP-18 = system: HOP-18
HOP-62 = system: HOP-62
HOP-92 = system: HOP-92
HT-29 = system: HT-29
IGROV-1 = system: IGROV-1
K562 = system: K562
KM-20L2 = system: KM-20L2
KM12 = system: KM12
LOX IMVI = system: LOX IMVI
LXFL 529 = system: LXFL 529
M14 = system: M14
M19-MEL = system: M19-MEL
MOLT-4 = system: MOLT-4
Malme-3M = system: Malme-3M
NCI-H226 = system: NCI-H226
NCI-H23 = system: NCI-H23
NCI-H460 = system: NCI-H460
OVCAR-3 = system: OVCAR-3
OVCAR-4 = system: OVCAR-4
OVCAR-5 = system: OVCAR-5
OVCAR-8 = system: OVCAR-8
RPMI-8226 = system: RPMI-8226
RXF 393 = system: RXF 393
RXF 631 = system: RXF 631
SF-268 = system: SF-268
SF-295 = system: SF-295
SF-539 = system: SF-539
SK-MEL-28 = system: SK-MEL-28
SK-MEL-2 = system: SK-MEL-2
SK-MEL-5 = system: SK-MEL-5
SK-OV-3 = system: SK-OV-3
SN12C = system: SN12C
SNB-19 = system: SNB-19
SNB-75 = system: SNB-75
SNB-78 = system: SNB-78
SW-620 = system: SW-620
TK-10 = system: TK-10
U-251 = system: U-251
UACC-257 = system: UACC-257
UACC-62 = system: UACC-62
XF498 = system: XF498

For CN(/N=C/c1cccc2cccnc12)c1c([N+](=O)[O-])cc([N+](=O)[O-])cc1[N+](=O)[O-], the GI50 (786-0) was > 100 µM (inactive), the GI50 (A498) was 25.5 µM (inactive) and the GI50 (A549) was 46.8 µM (inactive). The GI50 (ACHN) was > 100 µM (inactive), the GI50 (CAKI-1) was > 100 µM (inactive) and the GI50 (COLO 205) was > 100 µM (inactive). For the same compound, the GI50 (DLD-1) was > 100 µM (inactive), the GI50 (DMS-114) was 6.52 µM (inactive) and the GI50 (DMS-273) was 7.6 µM (inactive). For the same compound, the GI50 (EKVX) was > 100 µM (inactive), the GI50 (HCC 2998) was > 100 µM (inactive) and the GI50 (HCT-116) was > 100 µM (inactive). For the same compound, the GI50 (HCT-15) was 13.2 µM, the GI50 (HL-60) was 5.82 µM (inactive) and the GI50 (HOP-18) was > 100 µM (inactive). The GI50 (HOP-62) was > 100 µM (inactive), the GI50 (HOP-92) was > 100 µM (inactive) and the GI50 (HT-29) was 69.2 µM (inactive). The GI50 (IGROV-1) was > 100 µM (inactive), the GI50 (K562) was 3.56 µM (inactive) and the GI50 (KM-20L2) was > 100 µM (inactive). For the same compound, the GI50 (KM12) was 25.2 µM (inactive), the GI50 (LOX IMVI) was 45.3 µM (inactive) and the GI50 (LXFL 529) was > 100 µM (inactive). For the same compound, the GI50 (M14) was > 100 µM (inactive), the GI50 (M19-MEL) was > 100 µM (inactive) and the GI50 (MOLT-4) was 11.4 µM (inactive). The GI50 (Malme-3M) was > 100 µM (inactive), the GI50 (NCI-H226) was > 100 µM (inactive) and the GI50 (NCI-H23) was > 100 µM (inactive). The GI50 (NCI-H460) was > 100 µM (inactive), the GI50 (OVCAR-3) was > 100 µM (inactive) and the GI50 (OVCAR-4) was > 100 µM (inactive). For the same compound, the GI50 (OVCAR-5) was > 100 µM (inactive), the GI50 (OVCAR-8) was > 100 µM (inactive) and the GI50 (RPMI-8226) was > 100 µM (inactive). The GI50 (RXF 393) was > 100 µM (inactive), the GI50 (RXF 631) was > 100 µM (inactive) and the GI50 (SF-268) was > 100 µM (inactive). The GI50 (SF-295) was > 100 µM (inactive), the GI50 (SF-539) was > 100 µM (inactive) and the GI50 (SK-MEL-28) was > 100 µM (inactive). The GI50 (SK-MEL-2) was > 100 µM (inactive), the GI50 (SK-MEL-5) was 64.9 µM (inactive) and the GI50 (SK-OV-3) was > 100 µM (inactive). For the same compound, the GI50 (SN12C) was > 100 µM (inactive), the GI50 (SNB-19) was > 100 µM (inactive) and the GI50 (SNB-75) was > 100 µM (inactive). For the same compound, the GI50 (SNB-78) was > 100 µM (inactive), the GI50 (SW-620) was > 100 µM (inactive) and the GI50 (TK-10) was > 100 µM (inactive). The GI50 (U-251) was > 100 µM (inactive), the GI50 (UACC-257) was > 100 µM (inactive) and the GI50 (UACC-62) was > 100 µM (inactive). The GI50 (XF498) was > 100 µM (inactive).
